The text below walks through data of PubChem BioAssay AID248 (DTP/NCI, 2004).

“And” between values parts separate entries of the source, which are not always exact repeats. Identical values can stand only once. Toxic doses and inconclusive results are not listed.

This assay has as its system L1210 leukemia ip in BDF1 mice, survival T/C. In words: NCI In Vivo Anticancer Drug Screen. Data for tumor model L1210 Leukemia (intraperitoneal) in B6D2F1 (BDF1) mice. The settings on record: higher = longer survival. The method in brief:
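Antitumor effect is assessed in tumor-bearing animals. Survival in the compound arm is compared with a vehicle-dosed control arm and expressed as their quotient.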

The mark [1] stands for this setting: endpoint: mean survival time, dose: 200.0 mg/kg/injection, schedule: Q04DX003 (ip), vehicle: saline with Tween-80.

Turning to `Cc1ccc(S(=O)(=O)OCCN(CCOS(=O)(=O)c2ccc(C)cc2)c2ccc(F)cc2)cc1`, the T/C was 122 % of control (endpoint: mean survival time, dose: 1.9 mg/kg/injection, schedule: Q01DX009 (ip), vehicle: saline); 122 % of control (endpoint: mean survival time, dose: 4.4 mg/kg/injection, schedule: Q01DX009 (ip), vehicle: saline); 102 % of control (endpoint: mean survival time, dose: 6.5 mg/kg/injection, schedule: Q01DX009 (ip), vehicle: saline); 124 % of control (endpoint: mean survival time, dose: 9.6 mg/kg/injection, schedule: Q01DX009 (ip), vehicle: saline); 118 % of control (endpoint: mean survival time, dose: 10.0 mg/kg/injection, schedule: Q01DX009 (ip), vehicle: saline); 113 % of control (endpoint: mean survival time, dose: 16.0 mg/kg/injection, schedule: Q01DX009 (ip), vehicle: saline). Moreover, the T/C by setting is: (endpoint: mean survival time, dose: 22.0 mg/kg/injection, schedule: Q01DX009 (ip), vehicle: saline) 166 % of control; (endpoint: mean survival time, dose: 23.0 mg/kg/injection, schedule: Q01DX009 (ip), vehicle: saline) 113 % of control; (endpoint: mean survival time, dose: 24.0 mg/kg/injection, schedule: Q01DX009 (ip), vehicle: saline) 152 % of control; (endpoint: mean survival time, dose: 35.0 mg/kg/injection, schedule: Q01DX009 (ip), vehicle: saline) 121 % of control; (endpoint: mean survival time, dose: 50.0 mg/kg/injection, schedule: Q01DX001 (ip), vehicle: saline) 97 % of control; (endpoint: mean survival time, dose: 50.0 mg/kg/injection, schedule: Q01DX009 (ip), vehicle: saline) 95 % of control. Besides, the T/C runs as follows: (endpoint: mean survival time, dose: 53.0 mg/kg/injection, schedule: Q01DX009 (ip), vehicle: other) 110 % of control; (endpoint: mean survival time, dose: 75.0 mg/kg/injection, schedule: Q01DX009 (ip), vehicle: saline) 88 % of control; (endpoint: mean survival time, dose: 79.0 mg/kg/injection, schedule: Q01DX009 (ip), vehicle: other) 98 % of control and 119 % of control; (endpoint: mean survival time, dose: 100.0 mg/kg/injection, schedule: Q01DX001 (ip), vehicle: saline) 100 % of control; (endpoint: mean survival time, dose: 118.0 mg/kg/injection, schedule: Q01DX009 (ip), vehicle: other) 104 % of control; (endpoint: mean survival time, dose: 150.0 mg/kg/injection, schedule: Q01DX009 (ip), vehicle: saline) 123 % of control. Further, the T/C is 105 % of control (endpoint: mean survival time, dose: 200.0 mg/kg/injection, schedule: Q01DX001 (ip), vehicle: saline) and 115 % of control (endpoint: mean survival time, dose: 400.0 mg/kg/injection, schedule: Q01DX001 (ip), vehicle: saline).

Take `CCC(C)N(C)/N=N/c1nc[nH]c1C(N)=O` (stereo not drawn): the T/C was 110 % of control (endpoint: mean survival time, dose: 11.0 mg/kg/injection, schedule: Q01DX009 (ip), vehicle: Klucel (hydroxypropylcellulose) (HPC)); 123 % of control (endpoint: mean survival time, dose: 16.7 mg/kg/injection, schedule: Q01DX009 (ip), vehicle: Klucel (hydroxypropylcellulose) (HPC)); 124 % of control (endpoint: mean survival time, dose: 16.8 mg/kg/injection, schedule: Q01DX009 (ip), vehicle: Klucel (hydroxypropylcellulose) (HPC)); 124 % of control (endpoint: mean survival time, dose: 25.0 mg/kg/injection, schedule: Q01DX009 (ip), vehicle: Klucel (hydroxypropylcellulose) (HPC)); 121 % of control (endpoint: mean survival time, dose: 25.0 mg/kg/injection, schedule: Q04DX003 (ip), vehicle: water); 159 % of control (endpoint: mean survival time, dose: 38.0 mg/kg/injection, schedule: Q01DX009 (ip), vehicle: Klucel (hydroxypropylcellulose) (HPC)). The T/C is, setting by setting: (endpoint: mean survival time, dose: 50.0 mg/kg/injection, schedule: Q01DX001 (ip), vehicle: water) 101 % of control; (endpoint: mean survival time, dose: 50.0 mg/kg/injection, schedule: Q01DX009 (ip), vehicle: water) 154 % of control; (endpoint: mean survival time, dose: 50.0 mg/kg/injection, schedule: Q04DX003 (ip), vehicle: water) 106 % of control; (endpoint: mean survival time, dose: 58.0 mg/kg/injection, schedule: Q01DX009 (ip), vehicle: Klucel (hydroxypropylcellulose) (HPC)) 159 % of control; (endpoint: mean survival time, dose: 88.0 mg/kg/injection, schedule: Q01DX009 (ip), vehicle: Klucel (hydroxypropylcellulose) (HPC)) 150 % of control and 186 % of control; (endpoint: mean survival time, dose: 100.0 mg/kg/injection, schedule: Q01DX001 (ip), vehicle: water) 110 % of control. Also, the T/C runs as follows: (endpoint: mean survival time, dose: 100.0 mg/kg/injection, schedule: Q01DX009 (ip), vehicle: water) 120 % of control; (endpoint: mean survival time, dose: 100.0 mg/kg/injection, schedule: Q04DX003 (ip), vehicle: water) 110 % of control; (endpoint: mean survival time, dose: 133.0 mg/kg/injection, schedule: Q01DX009 (ip), vehicle: Klucel (hydroxypropylcellulose) (HPC)) 106 % of control; (endpoint: mean survival time, dose: 133.0 mg/kg/injection, schedule: Q04DX003 (ip), vehicle: saline with Tween-80) 116 % of control and 124 % of control; (endpoint: mean survival time, dose: 200.0 mg/kg/injection, schedule: Q01DX001 (ip), vehicle: water) 109 % of control; under setting [1], 121 % of control. The T/C by setting is: (endpoint: mean survival time, dose: 200.0 mg/kg/injection, schedule: Q04DX003 (ip), vehicle: water) 106 % of control; (endpoint: mean survival time, dose: 300.0 mg/kg/injection, schedule: Q04DX003 (ip), vehicle: saline with Tween-80) 157 % of control; (endpoint: mean survival time, dose: 400.0 mg/kg/injection, schedule: Q04DX003 (ip), vehicle: water) 94 % of control; (endpoint: median survival time, dose: 25.0 mg/kg/injection, schedule: Q01DX009 (ip), vehicle: Klucel (hydroxypropylcellulose) (HPC)) 115 % of control; (endpoint: median survival time, dose: 50.0 mg/kg/injection, schedule: Q01DX009 (ip), vehicle: Klucel (hydroxypropylcellulose) (HPC)) 155 % of control; (endpoint: median survival time, dose: 75.0 mg/kg/injection, schedule: Q01DX009 (ip), vehicle: Klucel (hydroxypropylcellulose) (HPC)) 155 % of control. The T/C reads like this: (endpoint: median survival time, dose: 100.0 mg/kg/injection, schedule: Q01DX009 (ip), vehicle: Klucel (hydroxypropylcellulose) (HPC)) 155 % of control; (endpoint: median survival time, dose: 100.0 mg/kg/injection, schedule: Q04DX003 (ip), vehicle: Klucel (hydroxypropylcellulose) (HPC)) 110 % of control; (endpoint: median survival time, dose: 200.0 mg/kg/injection, schedule: Q04DX003 (ip), vehicle: Klucel (hydroxypropylcellulose) (HPC)) 120 % of control; (endpoint: median survival time, dose: 300.0 mg/kg/injection, schedule: Q04DX003 (ip), vehicle: Klucel (hydroxypropylcellulose) (HPC)) 120 % of control; (endpoint: median survival time, dose: 400.0 mg/kg/injection, schedule: Q04DX003 (ip), vehicle: Klucel (hydroxypropylcellulose) (HPC)) 100 % of control.

As for `CC[C@@]1(O)C(=O)OCc2c1cc1n(c2=O)Cc2cc3ccccc3[n+]([O-])c2-1`, the T/C is, setting by setting: (endpoint: mean survival time, dose: 1.0 mg/kg/injection, schedule: Q01DX015 (ip), vehicle: saline) 112 % of control; (endpoint: mean survival time, dose: 8.0 mg/kg/injection, schedule: Q01DX015 (ip), vehicle: saline) 86 % of control; (endpoint: mean survival time, dose: 12.5 mg/kg/injection, schedule: Q01DX001 (ip), vehicle: saline) 115 % of control.

`CCOC(=O)CCCN(c1sc(C)c(C)c1C(=O)OCC)S(=O)(=O)c1ccc(C)cc1`: the T/C reads like this: (endpoint: mean survival time, dose: 50.0 mg/kg/injection, schedule: Q01DX009 (ip), vehicle: Klucel (hydroxypropylcellulose) (HPC)) 86 % of control; (endpoint: mean survival time, dose: 50.0 mg/kg/injection, schedule: Q04DX003 (ip), vehicle: saline with Tween-80) 97 % of control; (endpoint: mean survival time, dose: 100.0 mg/kg/injection, schedule: Q01DX009 (ip), vehicle: Klucel (hydroxypropylcellulose) (HPC)) 105 % of control; (endpoint: mean survival time, dose: 100.0 mg/kg/injection, schedule: Q04DX003 (ip), vehicle: saline with Tween-80) 97 % of control; (endpoint: mean survival time, dose: 200.0 mg/kg/injection, schedule: Q01DX009 (ip), vehicle: Klucel (hydroxypropylcellulose) (HPC)) 86 % of control; under setting [1], 97 % of control. Moreover, the T/C is 90 % of control (endpoint: mean survival time, dose: 400.0 mg/kg/injection, schedule: Q01DX009 (ip), vehicle: Klucel (hydroxypropylcellulose) (HPC)) and 101 % of control (endpoint: mean survival time, dose: 400.0 mg/kg/injection, schedule: Q04DX003 (ip), vehicle: saline with Tween-80).

In the case of `Cn1c(CN(CCCl)CCCl)nc2c1c(=O)[nH]c(=O)n2C`, the T/C is 108 % of control (endpoint: mean survival time, dose: 50.0 mg/kg/injection, schedule: Q01DX001 (ip), vehicle: carboxymethylcellulose (CMC)); 102 % of control (endpoint: mean survival time, dose: 100.0 mg/kg/injection, schedule: Q01DX001 (ip), vehicle: carboxymethylcellulose (CMC)); 109 % of control (endpoint: mean survival time, dose: 178.0 mg/kg/injection, schedule: Q01DX001 (ip), vehicle: carboxymethylcellulose (CMC)); 119 % of control (endpoint: mean survival time, dose: 200.0 mg/kg/injection, schedule: Q01DX001 (ip), vehicle: carboxymethylcellulose (CMC)); 111 % of control and 116 % of control (endpoint: mean survival time, dose: 267.0 mg/kg/injection, schedule: Q01DX001 (ip), vehicle: carboxymethylcellulose (CMC)); 93 % of control (endpoint: mean survival time, dose: 400.0 mg/kg/injection, schedule: Q01DX001 (ip), vehicle: carboxymethylcellulose (CMC)). Besides, where the note is “endpoint: mean survival time, dose: 600.0 mg/kg/injection, schedule: Q01DX001 (ip), vehicle: carboxymethylcellulose (CMC)”, the T/C was 90 % of control.

As to `Cc1ccc(-c2ccc3sc(C)[n+](C)c3c2)cc1`, the T/C (endpoint: mean survival time, dose: 100.0 mg/kg/injection, schedule: Q04DX003 (ip), vehicle: saline) is 92 % of control.
